PubChem BioAssay (NCI)
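These data come from cells grown in 96-well plates and exposed to compound for 48 hours at five concentrations. At the TGI there is no net growth.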 Where a SMILES comes first, the peptide text is derived from it. [ ]: non-standard residue; d: D form. The star is where a group is joined. Ac5c = NC1(C(=O)O)CCCC1; Cbz = O=C(OCc1ccccc1)*; Boc = CC(C)(C)OC(=O)*; tBu = CC(C)(C)*

Columns and labels:
Experiment in all cases: growth of human tumour cells (NCI), 48 h
786-0 renal = test system: 786-0 renal
A498 renal = test system: A498 renal
A549 NSCLC = test system: A549 NSCLC
ACHN renal = test system: ACHN renal
CAKI-1 renal = test system: CAKI-1 renal
CCRF-CEM leukemia = test system: CCRF-CEM leukemia
COLO 205 colon = test system: COLO 205 colon
EKVX NSCLC = test system: EKVX NSCLC
HCC-2998 colon = test system: HCC-2998 colon
HCT-116 colon = test system: HCT-116 colon
HCT-15 colon = test system: HCT-15 colon
HL-60(TB) leukemia = test system: HL-60(TB) leukemia
HOP-62 NSCLC = test system: HOP-62 NSCLC
HOP-92 NSCLC = test system: HOP-92 NSCLC
HT29 colon = test system: HT29 colon
IGROV1 ovarian = test system: IGROV1 ovarian
K-562 leukemia = test system: K-562 leukemia
KM12 colon = test system: KM12 colon
LOX IMVI melanoma = test system: LOX IMVI melanoma
M14 melanoma = test system: M14 melanoma
MALME-3M melanoma = test system: MALME-3M melanoma
MOLT-4 leukemia = test system: MOLT-4 leukemia
NCI-H23 lung = test system: NCI-H23 lung
NCI-H460 lung = test system: NCI-H460 lung
NCI-H522 lung = test system: NCI-H522 lung
OVCAR-3 ovarian = test system: OVCAR-3 ovarian
OVCAR-4 ovarian = test system: OVCAR-4 ovarian
OVCAR-8 ovarian = test system: OVCAR-8 ovarian
RXF 393 renal = test system: RXF 393 renal
SF-268 CNS = test system: SF-268 CNS
SF-295 CNS = test system: SF-295 CNS
SF-539 CNS = test system: SF-539 CNS
SK-MEL-2 melanoma = test system: SK-MEL-2 melanoma
SK-MEL-28 melanoma = test system: SK-MEL-28 melanoma
SK-MEL-5 melanoma = test system: SK-MEL-5 melanoma
SK-OV-3 ovarian = test system: SK-OV-3 ovarian
SN12C renal = test system: SN12C renal
SNB-75 CNS = test system: SNB-75 CNS
SR leukemia = test system: SR leukemia
SW-620 colon = test system: SW-620 colon
TK-10 renal = test system: TK-10 renal
U251 CNS = test system: U251 CNS
UACC-257 melanoma = test system: UACC-257 melanoma
UACC-62 melanoma = test system: UACC-62 melanoma
NCI-H226 lung = test system: NCI-H226 lung
BT-549 breast = test system: BT-549 breast
DU-145 prostate = test system: DU-145 prostate
HS 578T breast = test system: HS 578T breast
MDA-MB-231 breast = test system: MDA-MB-231 breast
MDA-MB-435 = test system: MDA-MB-435
NCI/ADR-RES ovarian = test system: NCI/ADR-RES ovarian
OVCAR-5 ovarian = test system: OVCAR-5 ovarian
PC-3 prostate = test system: PC-3 prostate
SNB-19 CNS = test system: SNB-19 CNS
T-47D breast = test system: T-47D breast
UO-31 renal = test system: UO-31 renal

Measured: TGI

N/C(=N\N=C=C1C(=O)Nc2ccc(F)cc21)NO
> 100 µM: 786-0 renal | A498 renal | A549 NSCLC | ACHN renal | CAKI-1 renal | CCRF-CEM leukemia | COLO 205 colon | EKVX NSCLC | HCC-2998 colon | HCT-116 colon | HCT-15 colon | HL-60(TB) leukemia | HOP-62 NSCLC | HOP-92 NSCLC | HT29 colon | IGROV1 ovarian | K-562 leukemia | KM12 colon | LOX IMVI melanoma | M14 melanoma | MALME-3M melanoma | MOLT-4 leukemia | NCI-H23 lung | NCI-H460 lung | NCI-H522 lung | OVCAR-3 ovarian | OVCAR-4 ovarian | OVCAR-8 ovarian | RXF 393 renal | SF-268 CNS | SF-295 CNS | SF-539 CNS | SK-MEL-2 melanoma | SK-MEL-28 melanoma | SK-MEL-5 melanoma | SK-OV-3 ovarian | SN12C renal | SR leukemia | SW-620 colon | TK-10 renal | U251 CNS | UACC-257 melanoma | UACC-62 melanoma
65.9 µM: SNB-75 CNS

CC(OC(C)(C)C)C(NC(=O)C(CCCCNC(=O)OC(C)(C)C)NC(=O)C(Cc1c[nH]c2ccccc12)NC(=O)C(N)Cc1ccccc1)C(=O)NC(Cc1ccccc1)C(=O)NC1(C(=O)O)CCCC1 (stereo not given) (H-FWK(Boc)T(tBu)F[Ac5c]-OH; configuration not given here)
> 100 µM: HOP-92 NSCLC | NCI-H226 lung | NCI-H23 lung | UACC-257 melanoma

Cc1c(/C=N\NC(=S)N(C)CCN(C)C(=S)N/N=C\c2c(C)n(C)n(-c3ccccc3)c2=O)c(=O)n(-c2ccccc2)n1C
> 100 µM: 786-0 renal | A498 renal | A549 NSCLC | ACHN renal | BT-549 breast | CAKI-1 renal | COLO 205 colon | DU-145 prostate | EKVX NSCLC | HCC-2998 colon | HCT-116 colon | HCT-15 colon | HOP-62 NSCLC | HOP-92 NSCLC | HS 578T breast | HT29 colon | KM12 colon | M14 melanoma | MALME-3M melanoma | MDA-MB-231 breast | MDA-MB-435 | MOLT-4 leukemia | NCI-H226 lung | NCI-H23 lung | NCI-H460 lung | NCI-H522 lung | NCI/ADR-RES ovarian | OVCAR-3 ovarian | OVCAR-4 ovarian | OVCAR-5 ovarian | PC-3 prostate | RXF 393 renal | SF-268 CNS | SF-295 CNS | SF-539 CNS | SK-MEL-2 melanoma | SK-MEL-5 melanoma | SK-OV-3 ovarian | SNB-19 CNS | SNB-75 CNS | SR leukemia | SW-620 colon | T-47D breast | TK-10 renal | U251 CNS | UACC-257 melanoma | UACC-62 melanoma | UO-31 renal

COC(=O)C1(NC(=O)C(Cc2ccccc2)NC(=O)C(NC(=O)C(CCCCNC(=O)OC(C)(C)C)NC(=O)C(Cc2c[nH]c3ccccc23)NC(=O)C(Cc2ccccc2)NC(=O)OCc2ccccc2)C(C)OC(C)(C)C)CCCC1 (stereo not given) (Cbz-FWK(Boc)T(tBu)F[Ac5c]-OMe; configuration not given here)
> 100 µM: HOP-92 NSCLC | NCI-H226 lung | NCI-H23 lung | UACC-257 melanoma
